In US4886667A, “External preparation composition” (priority 1985, dated 1989):
Converted amounts (≈) assume the structure as drawn. Read-outs that look alike come from different tables or passages of the source.

What was measured:
[1] = tested on: Bacteroides fragilis RIMD 023001; assay: Minimum inhibitory concentration (MIC), agar dilution method, standard strains; assay type: cell-based; settings: 37° C., 60 hrs; for MIC: RIMD023001, anaerobic; for Minimum inhibitory concentration to standard strains: anaerobic
[2] = tested on: Trichophyton mentagrophytes IFO 5466; assay: as above; assay type: cell-based; settings: for MIC: read-out: Minimum inhibitory concentration to standard strains
[3] = tested on: Trichophyton rubrum IFO 5467; assay: as above; assay type: cell-based; settings: for MIC: read-out: Minimum inhibitory concentration to standard strains
[4] = tested on: Microsporum gypseum IFO 8231; assay: as above; assay type: cell-based; settings: for MIC: Nannizzia gypsea, read-out: Minimum inhibitory concentration to standard strains
[5] = tested on: Staphylococcus aureus ATCC 6538P; assay: as above; settings: for MIC: Staphylococcus aureus, ATCC6538P, 48 h, read-out: Minimum inhibitory concentration to standard strains; for Minimum inhibitory concentration to standard strains: Staphylococcus aureus ATCC 6538P, aerobic, 37° C., 48 hrs
[6] = tested on: Staphylococcus epidermidis ATCC 12228; assay: as above; settings: for MIC: Staphylococcus epidermidis, ATCC12228, 48 h, read-out: Minimum inhibitory concentration to standard strains; for Minimum inhibitory concentration to standard strains: Staphylococcus epidermidis ATCC 12228, aerobic, 37° C., 48 hrs
[7] = tested on: Candida albicans ATCC 10261; assay: as above; settings: for MIC: ATCC10261, read-out: Minimum inhibitory concentration to standard strains; for Minimum inhibitory concentration to standard strains: yeast, Sabouraud medium
[8] = tested on: Fusobacterium nucleatum ATCC 25586; assay: as above; assay type: cell-based; settings: 37° C., 60 hrs; for MIC: ATCC25586, anaerobic
[9] = tested on: Corynebacterium acnes ATCC 11828; assay: as above; assay type: cell-based; settings: for MIC: Cutibacterium acnes, read-out: Minimum inhibitory concentration to standard strains
[10] = tested on: Bacteroides fragilis (48 isolated strains); assay: MIC against clinically isolated strains (cumulation percent); assay type: cell-based; settings: for MIC: 60 h, read-out: range of effective concentration
[11] = tested on: Clostridium perfringens (9 isolated strains); assay type: cell-based; settings: 9 isolated strains of clostridium perfringens
[12] = tested on: clinically isolated anaerobic bacteria; assay type: cell-based; settings: 70 isolated strains of the tested bacteria
[13] = tested on: Trichophyton mentagrophytes IFO 5810; assay: Antifungal activity in vivo by trichophytosis of guinea pig; settings: 1% solution; for Fungal negativity index / Healing index: 0.1 ml once a day for 8 days, guinea pig trichophytosis
[14] = Acute toxicity in mice; settings: for LD50 / Mortalities (Dead/Treated): male mice; for LD50: 23040 min; for Mortalities (Dead/Treated): 16 days
[15] = tested on: Staphylococcus pyogenes ATCC 10389; assay: Minimum inhibitory concentration (MIC), agar dilution method, standard strains; settings: aerobic, 37° C., 48 hrs
[16] = IFO5466, Trichophyton mentagrophytes IFO 5466, aerobic, 168 hrs
[17] = IFO5467, Trichophyton rubrum IFO 5467, aerobic, 168 hrs
[18] = IFO8231, Microsporum gypseum IFO 8231, aerobic, 168 hrs
[19] = ATCC11828, Corynebacterium acnes ATCC 11828, anaerobic, 37° C., 60 hrs
[20] = 48 isolated strains of Bacteroides fragilis, 100% efficiency stated for Ratanhiaphenol

Q: Which results are given for `COC1=CC(=O)C[C@@H](C)[C@]12Oc1c(Cl)c(OC)cc(OC)c1C2=O` [O, Griseofulvin]?
A: MIC [1]: 200 µg/mL (≈ 567 µM); MIC [2, 16]: 6.25 µg/mL (≈ 17.7 µM); MIC [3, 17]: 6.25 µg/mL (≈ 17.7 µM); MIC [4, 18]: 6.25 µg/mL (≈ 17.7 µM); MIC [5]: > 1000 µg/mL; MIC [6]: > 1000 µg/mL; MIC [7]: > 1000 µg/mL

Q: Which results are given for `CC1(C)S[C@@H]2[C@H](NC(=O)[C@H](NC(=O)c3cnc4cccnc4c3O)c3ccccc3)C(=O)N2[C@H]1C(=O)O` [M, Apalcillin]?
A: MIC [1]: 50 µg/mL (≈ 95.9 µM); MIC [8]: 12.5 µg/mL (≈ 24 µM); MIC [9, 19]: 25 µg/mL (≈ 47.9 µM); MIC [2, 16]: > 1000 µg/mL; MIC [3, 17]: > 1000 µg/mL; MIC [4, 18]: > 1000 µg/mL; MIC [5]: 50 µg/mL (≈ 95.9 µM); MIC [6]: 25 µg/mL (≈ 47.9 µM)

Q: Which “Minimum inhibitory concentration to standard strains” value (from here on “Minimum inhibitory concentration”) [1] does the source give for Ratanhiaphenol [F] here?
A: 6.25 µg/mL

Q: And the “Minimum inhibitory concentration” value ([8]; anaerobic)?
A: 6.25 µg/mL

Q: What about the “Minimum inhibitory concentration” value ([9]; Corynebacterium acnes ATCC 11828, anaerobic, 37° C., 60 hrs) of the same compound?
A: 6.25 µg/mL

Q: And the “Minimum inhibitory concentration” value ([2]; Trichophyton mentagrophytes IFO 5466, aerobic, 168 hrs)?
A: 1.56 µg/mL

Q: What about the “Minimum inhibitory concentration” value ([3]; Trichophyton rubrum IFO 5467, aerobic, 168 hrs) of the same compound?
A: 1.56 µg/mL

Q: What about the “Minimum inhibitory concentration” value ([4]; Microsporum gypseum IFO 8231, aerobic, 168 hrs) of the same compound?
A: 0.78 µg/mL

Q: What about the “range of effective concentration” value [10, 20] of the same compound?
A: 1.56 to 6.25 µg/mL

Q: And the “range of effective concentration (100% efficiency)” value [11]?
A: 3.13 to 12.5 µg/mL

Q: What about the “range of effective concentration (100% efficiency)” value [12] of the same compound?
A: 1.56 to 12.5 µg/mL

Q: And the “healing effect compared with 1% clotrimazole solution” value [13]?
A: equivalent to that of 1% clotrimazole solution

Q: What about the Fungal negativity index [13] of the same compound?
A: 81%

Q: And the Healing index [13]?
A: 67%

Q: What about the LD50 ([14]; oral administration) of the same compound?
A: 5000 mg/kg

Q: And the toxicity ([14]; oral or subcutaneous single dose, mice)?
A: low

Q: And the abnormal sign ([14]; oral or subcutaneous single dose, mice, 16 days observation)?
A: no abnormal sign was observed

Q: What about the “Mortalities (Dead/Treated)” value ([14]; oral, 1 g/kg) of the same compound?
A: 0/5

Q: And the “Mortalities (Dead/Treated)” value ([14]; oral, 5 g/kg)?
A: 2/5

Q: What about the LD50 ([14]; subcutaneous administration) of the same compound?
A: > 5000 mg/kg

Q: And the “Mortalities (Dead/Treated)” value ([14]; subcutaneous, 1 g/kg)?
A: 0/5

Q: What about the “Mortalities (Dead/Treated)” value ([14]; subcutaneous, 5 g/kg) of the same compound?
A: 0/5

Q: And the “Minimum inhibitory concentration” value [5]?
A: 0.39 µg/mL

Q: And the “Minimum inhibitory concentration” value [6]?
A: 0.39 µg/mL

Q: And the “Minimum inhibitory concentration” value [15]?
A: 0.10 µg/mL

Q: What about the “Minimum inhibitory concentration” value [7] of the same compound?
A: > 10 µg/mL

Q: For `CN(C)[C@@H]1C(=O)C(C(N)=O)=C(O)[C@@]2(O)C(=O)C3=C(O)c4c(O)cccc4[C@@](C)(O)[C@H]3C[C@@H]12` [R, Tetracycline], which MIC ([10]; Bacteroides fragilis) is on record?
A: 1.56 to 400 µg/mL (≈ 3.51 to 900 µM)

Q: With `Clc1ccccc1C(c1ccccc1)(c1ccccc1)n1ccnc1` [Clotrimazole] as the compound, how does the Fungal negativity index [13] read?
A: 88%

Q: What about the Healing index [13] of the same compound?
A: 60%

Q: With `C[CH2][Hg][S]c1ccccc1C(=O)[O-].[Na+]` [Thimerosal] as the compound, how does the Fungal negativity index [13] read?
A: 100%

Q: And the Healing index [13]?
A: 100%

Q: For `CC1(C)S[C@@H]2[C@H](NC(=O)[C@H](C(=O)O)c3ccsc3)C(=O)N2[C@H]1C(=O)O` [L, Ticarcillin], which MIC [1] is on record?
A: 50 µg/mL (≈ 130 µM)

Q: And the MIC [8]?
A: 6.25 µg/mL (≈ 16.3 µM)

Q: And the MIC [9, 19]?
A: 50 µg/mL (≈ 130 µM)

Q: And the MIC [2, 16]?
A: > 1000 µg/mL

Q: And the MIC [3, 17]?
A: > 1000 µg/mL

Q: And the MIC [4, 18]?
A: > 1000 µg/mL

Q: What about the MIC [5] of the same compound?
A: 3.13 µg/mL (≈ 8.14 µM)

Q: And the MIC [6]?
A: 6.25 µg/mL (≈ 16.3 µM)

Q: Which MIC [10, 20] does the source give for `CC1=C(C(=O)O)N2C(=O)[C@@H](NC(=O)[C@H](N)c3ccccc3)[C@H]2SC1` [S, Cefalexin] here?
A: 3.13 to 400 µg/mL (≈ 9.01 to 1150 µM)

Q: Which MIC [8] does the source give for `Cc1cccc(N(C)C(=S)Oc2ccc3ccccc3c2)c1` [P, Tolnaftate] here?
A: 200 µg/mL (≈ 651 µM)

Q: What about the MIC [2, 16] of the same compound?
A: 0.1 µg/mL (≈ 0.325 µM)

Q: And the MIC [3, 17]?
A: 0.1 µg/mL (≈ 0.325 µM)

Q: What about the MIC [4, 18] of the same compound?
A: 0.1 µg/mL (≈ 0.325 µM)

Q: And the MIC [5]?
A: > 1000 µg/mL

Q: What about the MIC [6] of the same compound?
A: > 1000 µg/mL

Q: And the MIC [7]?
A: > 1000 µg/mL

Q: Which “Minimum inhibitory concentration” value [1] does the source give for `Cc1cc(O)ccc1C(C)C` [N, Isopropylmethylphenol] here?
A: 400 µg/mL (≈ 2660 µM)

Q: What about the “Minimum inhibitory concentration” value [5] of the same compound?
A: 400 µg/mL (≈ 2660 µM)

Q: What about the “Minimum inhibitory concentration” value [6] of the same compound?
A: 200 µg/mL (≈ 1330 µM)

Q: And the “Minimum inhibitory concentration” value [15]?
A: 100 µg/mL (≈ 666 µM)

Q: And the “Minimum inhibitory concentration” value [7]?
A: 200 µg/mL (≈ 1330 µM)

Q: With `C=CCCCCCCCCC(=O)O` [Q, Undecylenic acid] as the compound, how does the MIC ([9]; ATCC11828, 60 h) read?
A: 400 µg/mL (≈ 2170 µM)

Q: What about the MIC ([2]; Trichophyton mentagrophytes, IFO5466, 168 h) of the same compound?
A: 12.5 µg/mL (≈ 67.8 µM)

Q: What about the MIC ([3]; Trichophyton rubrum, IFO5467, 168 h) of the same compound?
A: 12.5 µg/mL (≈ 67.8 µM)

Q: What about the MIC ([4]; IFO8231, 168 h) of the same compound?
A: 6.25 µg/mL (≈ 33.9 µM)

Q: What about the MIC [5] of the same compound?
A: > 1000 µg/mL

Q: And the MIC [6]?
A: > 1000 µg/mL

Q: What about the MIC [7] of the same compound?
A: 200 µg/mL (≈ 1090 µM)
